This note sets out measurements from publication PMC11343403, “A novel TREX1 inhibitor, VB-85680, upregulates cellular interferon responses” (PLOS ONE, 2024).

Broadly, the IC50 is the point on the concentration scale where inhibition reaches its midpoint.

Assay [1] addresses T1, TREX1 (Three-prime Repair EXonuclease 1), human (Homo sapiens, UniProt Q9NSU2).
T1 construct: endogenous human TREX1 in THP1-Dual cell lysate
T1 sequence (Q9NSU2 1-314): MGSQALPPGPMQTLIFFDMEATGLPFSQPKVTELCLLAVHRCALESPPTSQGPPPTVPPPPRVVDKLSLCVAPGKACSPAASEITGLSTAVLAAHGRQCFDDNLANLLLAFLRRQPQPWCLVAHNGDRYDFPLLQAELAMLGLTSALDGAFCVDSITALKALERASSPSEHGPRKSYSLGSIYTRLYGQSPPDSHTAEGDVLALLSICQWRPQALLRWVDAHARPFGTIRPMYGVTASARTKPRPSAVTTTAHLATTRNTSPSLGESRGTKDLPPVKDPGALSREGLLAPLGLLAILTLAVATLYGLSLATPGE
In words: BioVision […]' to […]' exonuclease activity assay in THP1-Dual lysate, with TREX1 knockout lysate control. In kind it is biochemical.

Assay [2] deals with T2, TREX1 (Three-prime Repair EXonuclease 1), mouse (Mus musculus, UniProt Q91XB0).
T2 construct: full-length mouse TREX1 (wild-type), overexpressed in HEK293T
T2 sequence (Q91XB0 1-314): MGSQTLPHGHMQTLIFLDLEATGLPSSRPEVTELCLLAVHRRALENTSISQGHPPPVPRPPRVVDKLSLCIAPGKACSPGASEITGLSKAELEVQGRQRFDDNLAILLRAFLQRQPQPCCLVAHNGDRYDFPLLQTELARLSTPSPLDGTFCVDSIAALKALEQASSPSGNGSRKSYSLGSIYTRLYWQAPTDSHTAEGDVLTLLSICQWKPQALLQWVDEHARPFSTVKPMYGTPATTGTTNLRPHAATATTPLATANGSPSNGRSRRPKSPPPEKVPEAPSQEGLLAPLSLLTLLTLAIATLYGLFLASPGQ
Put plainly: fluorescence exonuclease assay (FAM-12mer-BHQ1) in HEK293T overexpression lysate, with D18N and empty-vector controls. It is filed as biochemical.

As for VB-85680, the results for the IC50 in assay [1] and in assay [2] were 0.0488 µM and 0.0031 µM, respectively.
